{"source": "patent US10597388B2", "about": "“Pyridazinone herbicides” (FMC CORPORATION, priority 2014, dated 2020)", "test_in_all_cases": "Test D controlled growth environment herbicide test, pre- and postemergence", "type_in_all_cases": "in vivo", "key": {"[1]": {"test_system": "chamomile (scentless chamomile, Matricaria inodora)", "method_in_brief": "(§1)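 Rating is visual, 0–100 scale (100 = complete control), made against untreated plants 14–21 d after treatment in controlled growth conditions. Postemergence sprays went onto 1- to 4-leaf plants in peat medium; preemergence sprays onto silt loam after sowing; formulation included a surfactant.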"}, "[2]": {"test_system": "buckwheat, wild (wild buckwheat, Polygonum convolvulus)", "method_in_brief": "as §1"}, "[3]": {"test_system": "blackgrass (Alopecurus myosuroides)", "method_in_brief": "as §1"}, "[4]": {"test_system": "oat, wild (wild oat, Avena fatua)", "method_in_brief": "as §1"}, "[5]": {"test_system": "radish, wild (wild radish, Raphanus raphanistrum)", "method_in_brief": "as §1"}, "[6]": {"test_system": "pigweed (Amaranthus retroflexus)", "method_in_brief": "as §1"}, "[7]": {"test_system": "field violet (Viola arvensis)", "method_in_brief": "as §1"}, "[8]": {"test_system": "canarygrass (Phalaris minor)", "method_in_brief": "as §1"}, "[9]": {"test_system": "bluegrass (annual bluegrass, Poa annua)", "method_in_brief": "as §1"}, "[10]": {"test_system": "ryegrass, Italian (Italian ryegrass, Lolium multiflorum)", "method_in_brief": "as §1"}, "[11]": {"test_system": "barley, spring (spring barley, Hordeum vulgare)", "method_in_brief": "as §1"}, "[12]": {"test_system": "wheat, spring (spring wheat, Triticum aestivum)", "method_in_brief": "as §1"}, "[13]": {"test_system": "foxtail, green (green foxtail, Setaria viridis)", "method_in_brief": "as §1"}, "[14]": {"conditions": "Postemergence, 31 g ai/ha, scale 0 to 100 (0 no effect, 100 complete control)"}, "[15]": {"conditions": "Postemergence, 125 g ai/ha, visual rating on scale 0 (no effect) to 100 (complete control), 14 to 21 d"}, "[16]": {"conditions": "Postemergence, 250 g ai/ha, scale 0 to 100 (0 no effect, 100 complete control)"}, "[17]": {"conditions": "postemergence, 62 g ai/ha, scale 0 to 100, 0 no effect, 100 complete control"}, "[18]": {"conditions": "Preemergence, 62 g ai/ha, scale 0 to 100 (0 no effect, 100 complete control)"}, "[19]": {"conditions": "Preemergence, 125 g ai/ha, scale 0 to 100 (0 no effect, 100 complete control)"}, "[20]": {"conditions": "Preemergence, 250 g ai/ha, scale 0 to 100 (0 no effect, 100 complete control)"}}, "data": [{"smiles": "COc1nn(C)c(=O)c(-c2c(C)ccc3ccccc23)c1O", "note": "[Compound 54]", "values": [{"measurement": "Chamomile plant response rating", "setting": "[1]; [14]", "result": 90}, {"measurement": "Plant response rating, Chamomile", "setting": "[1]; [15]", "result": 100}, {"measurement": "Plant response rating, Chamomile", "setting": "[1]; [16]", "result": 100}, {"measurement": "Plant response rating, Chamomile", "setting": "[1]; [17]", "result": 100}, {"measurement": "Buckwheat, Wild plant response rating", "setting": "[2]; [14]", "result": 100}, {"measurement": "Plant response rating, Buckwheat, Wild", "setting": "[2]; [15]", "result": 100}, {"measurement": "Plant response rating, Buckwheat, Wild", "setting": "[2]; [16]", "result": 100}, {"measurement": "Plant response rating (scale of 0 to 100), Buckwheat, Wild", "setting": "[2]; Preemergence, 31 g ai/ha", "result": 0}, {"measurement": "Plant response rating, Buckwheat, Wild", "setting": "[2]; [18]", "result": 5}, {"measurement": "Plant response rating, Buckwheat, Wild", "setting": "[2]; [19]", "result": 70}, {"measurement": "Plant response rating, Buckwheat, Wild", "setting": "[2]; [20]", "result": 80}, {"measurement": "Plant response rating, Buckwheat, Wild", "setting": "[2]; [17]", "result": 100}, {"measurement": "Blackgrass plant response rating", "setting": "[3]; [14]", "result": 25}, {"measurement": "Plant response rating, Blackgrass", "setting": "[3]; [15]", "result": 70}, {"measurement": "Plant response rating, Blackgrass", "setting": "[3]; [16]", "result": 75}, {"measurement": "Plant response rating (scale of 0 to 100), Blackgrass", "setting": "[3]; Preemergence, 31 g ai/ha", "result": 15}, {"measurement": "Plant response rating, Blackgrass", "setting": "[3]; [18]", "result": 30}, {"measurement": "Plant response rating, Blackgrass", "setting": "[3]; [19]", "result": 50}, {"measurement": "Plant response rating, Blackgrass", "setting": "[3]; [20]", "result": 75}, {"measurement": "Plant response rating, Blackgrass", "setting": "[3]; [17]", "result": 40}, {"measurement": "Oat, Wild plant response rating", "setting": "[4]; [14]", "result": 75}, {"measurement": "Plant response rating, Oat, Wild", "setting": "[4]; [15]", "result": 90}, {"measurement": "Plant response rating, Oat, Wild", "setting": "[4]; [16]", "result": 90}, {"measurement": "Plant response rating (scale of 0 to 100), Oat, Wild", "setting": "[4]; Preemergence, 31 g ai/ha", "result": 75}, {"measurement": "Plant response rating, Oat, Wild", "setting": "[4]; [18]", "result": 75}, {"measurement": "Plant response rating, Oat, Wild", "setting": "[4]; [19]", "result": 85}, {"measurement": "Plant response rating, Oat, Wild", "setting": "[4]; [20]", "result": 95}, {"measurement": "Plant response rating, Oat, Wild", "setting": "[4]; [17]", "result": 85}, {"measurement": "Radish, Wild plant response rating", "setting": "[5]; [14]", "result": 80}, {"measurement": "Plant response rating, Radish, Wild", "setting": "[5]; [15]", "result": 100}, {"measurement": "Plant response rating, Radish, Wild", "setting": "[5]; [16]", "result": 100}, {"measurement": "Plant response rating (scale of 0 to 100), Radish, Wild", "setting": "[5]; Preemergence, 31 g ai/ha", "result": 25}, {"measurement": "Plant response rating, Radish, Wild", "setting": "[5]; [18]", "result": 100}, {"measurement": "Plant response rating, Radish, Wild", "setting": "[5]; [19]", "result": 100}, {"measurement": "Plant response rating, Radish, Wild", "setting": "[5]; [20]", "result": 100}, {"measurement": "Plant response rating, Radish, Wild", "setting": "[5]; [17]", "result": 100}, {"measurement": "Pigweed plant response rating", "setting": "[6]; [14]", "result": 100}, {"measurement": "Plant response rating, Pigweed", "setting": "[6]; [15]", "result": 100}, {"measurement": "Plant response rating, Pigweed", "setting": "[6]; [16]", "result": 100}, {"measurement": "Plant response rating (scale of 0 to 100), Pigweed", "setting": "[6]; Preemergence, 31 g ai/ha", "result": 80}, {"measurement": "Plant response rating, Pigweed", "setting": "[6]; [18]", "result": 100}, {"measurement": "Plant response rating, Pigweed", "setting": "[6]; [19]", "result": 100}, {"measurement": "Plant response rating, Pigweed", "setting": "[6]; [20]", "result": 100}, {"measurement": "Plant response rating, Pigweed", "setting": "[6]; [17]", "result": 100}, {"measurement": "Field Violet plant response rating", "setting": "[7]; [14]", "result": 85}, {"measurement": "Plant response rating, Field Violet", "setting": "[7]; [15]", "result": 95}, {"measurement": "Plant response rating, Field Violet", "setting": "[7]; [16]", "result": 90}, {"measurement": "Plant response rating (scale of 0 to 100), Field Violet", "setting": "[7]; Preemergence, 31 g ai/ha", "result": 25}, {"measurement": "Plant response rating, Field Violet", "setting": "[7]; [18]", "result": 35}, {"measurement": "Plant response rating, Field Violet", "setting": "[7]; [19]", "result": 70}, {"measurement": "Plant response rating, Field Violet", "setting": "[7]; [20]", "result": 95}, {"measurement": "Plant response rating, Field Violet", "setting": "[7]; [17]", "result": 75}, {"measurement": "Canarygrass plant response rating", "setting": "[8]; [14]", "result": 35}, {"measurement": "Plant response rating, Canarygrass", "setting": "[8]; [15]", "result": 65}, {"measurement": "Plant response rating, Canarygrass", "setting": "[8]; [16]", "result": 75}, {"measurement": "Plant response rating (scale of 0 to 100), Canarygrass", "setting": "[8]; Preemergence, 31 g ai/ha", "result": 15}, {"measurement": "Plant response rating, Canarygrass", "setting": "[8]; [18]", "result": 55}, {"measurement": "Plant response rating, Canarygrass", "setting": "[8]; [19]", "result": 80}, {"measurement": "Plant response rating, Canarygrass", "setting": "[8]; [20]", "result": 90}, {"measurement": "Plant response rating, Canarygrass", "setting": "[8]; [17]", "result": 55}, {"measurement": "Bluegrass plant response rating", "setting": "[9]; [14]", "result": 10}, {"measurement": "Plant response rating, Bluegrass", "setting": "[9]; [15]", "result": 25}, {"measurement": "Plant response rating, Bluegrass", "setting": "[9]; [16]", "result": 35}, {"measurement": "Plant response rating (scale of 0 to 100), Bluegrass", "setting": "[9]; Preemergence, 31 g ai/ha", "result": 0}, {"measurement": "Plant response rating, Bluegrass", "setting": "[9]; [18]", "result": 10}, {"measurement": "Plant response rating, Bluegrass", "setting": "[9]; [19]", "result": 15}, {"measurement": "Plant response rating, Bluegrass", "setting": "[9]; [20]", "result": 25}, {"measurement": "Plant response rating, Bluegrass", "setting": "[9]; [17]", "result": 15}, {"measurement": "Ryegrass, Italian plant response rating", "setting": "[10]; [14]", "result": 80}, {"measurement": "Plant response rating, Ryegrass, Italian", "setting": "[10]; [15]", "result": 90}, {"measurement": "Plant response rating, Ryegrass, Italian", "setting": "[10]; [16]", "result": 95}, {"measurement": "Plant response rating (scale of 0 to 100), Ryegrass, Italian", "setting": "[10]; Preemergence, 31 g ai/ha", "result": 35}, {"measurement": "Plant response rating, Ryegrass, Italian", "setting": "[10]; [18]", "result": 90}, {"measurement": "Plant response rating, Ryegrass, Italian", "setting": "[10]; [19]", "result": 100}, {"measurement": "Plant response rating, Ryegrass, Italian", "setting": "[10]; [20]", "result": 100}, {"measurement": "Plant response rating, Ryegrass, Italian", "setting": "[10]; [17]", "result": 85}, {"measurement": "Barley, Spring plant response rating", "setting": "[11]; [14]", "result": 0}, {"measurement": "Plant response rating, Barley, Spring", "setting": "[11]; [15]", "result": 0}, {"measurement": "Plant response rating, Barley, Spring", "setting": "[11]; [16]", "result": 10}, {"measurement": "Plant response rating (scale of 0 to 100), Barley, Spring", "setting": "[11]; Preemergence, 31 g ai/ha", "result": 0}, {"measurement": "Plant response rating, Barley, Spring", "setting": "[11]; [18]", "result": 0}, {"measurement": "Plant response rating, Barley, Spring", "setting": "[11]; [19]", "result": 0}, {"measurement": "Plant response rating, Barley, Spring", "setting": "[11]; [20]", "result": 5}, {"measurement": "Plant response rating, Barley, Spring", "setting": "[11]; [17]", "result": 0}, {"measurement": "Wheat, Spring plant response rating", "setting": "[12]; [14]", "result": 0}, {"measurement": "Plant response rating, Wheat, Spring", "setting": "[12]; [15]", "result": 15}, {"measurement": "Plant response rating, Wheat, Spring", "setting": "[12]; [16]", "result": 25}, {"measurement": "Plant response rating (scale of 0 to 100), Wheat, Spring", "setting": "[12]; Preemergence, 31 g ai/ha", "result": 0}, {"measurement": "Plant response rating, Wheat, Spring", "setting": "[12]; [18]", "result": 0}, {"measurement": "Plant response rating, Wheat, Spring", "setting": "[12]; [19]", "result": 0}, {"measurement": "Plant response rating, Wheat, Spring", "setting": "[12]; [20]", "result": 45}, {"measurement": "Plant response rating, Wheat, Spring", "setting": "[12]; [17]", "result": 0}, {"measurement": "Foxtail, Green plant response rating", "setting": "[13]; [14]", "result": 55}, {"measurement": "Plant response rating, Foxtail, Green", "setting": "[13]; [15]", "result": 70}, {"measurement": "Plant response rating, Foxtail, Green", "setting": "[13]; [16]", "result": 80}, {"measurement": "Plant response rating (scale of 0 to 100), Foxtail, Green", "setting": "[13]; Preemergence, 31 g ai/ha", "result": 50}, {"measurement": "Plant response rating, Foxtail, Green", "setting": "[13]; [18]", "result": 60}, {"measurement": "Plant response rating, Foxtail, Green", "setting": "[13]; [19]", "result": 65}, {"measurement": "Plant response rating, Foxtail, Green", "setting": "[13]; [20]", "result": 100}, {"measurement": "Plant response rating, Foxtail, Green", "setting": "[13]; [17]", "result": 65}]}]}
